Test: Phosphate binding assay (molybdate colorimetry, OD700) at pH 8.3
Settings: KH2PO4 0.53M, room temperature (about 25° C.), 2 hours
Procedure: Since the phosphate uptake in human body mostly takes place in the intestine instead of stomach, we tested the phosphate-binding ability of the aforesaid 60% deacetylation chitosan citrate (CHS-60L) and 90% deacetylation chitosan citrate (CHS-90L) in an environment of pH 8.3, which mimicked to the intestine environment in vivo.
Briefly, KH2PO4 and the present chitosan citrate were mixed at room temperature (about 25° C.) for 2 hours. Then, 2 μl of the mixture of each group (and KH2PO4 without reaction with binding agents) was mixed with 120 μl of acetate buffer (0.1 N acetic acid and 0.025 N of CH3COONa), 12 μl of ascorbic acid (1 wt %), and […] of NH4MoO4 (1%, in 0.05 N H2SO4) at room temperature for 20 to 30 minutes. After that, the OD700 of the mixture was detected by spectrometer. The conventional phosphate binding agent, calcium carbonate, was used as positive control of the experiment.

## O=C([O-])[O-].[Ca+2] [calcium carbonate]
Binding agent 10 mM
  Binding ability (%): 70.90%
Binding agent 20 mM
  Binding ability (%): 75.40%

Reference: patent US20200383926A1, “ENTERIC COATED PHARMACEUTICAL COMPOSITION AND USE THEREOF” (SHIN ERA TECHNOLOGY CO. LTD., priority 2017, published 2020)
